Reference: ChEMBL document CHEMBL1153670 (Bioorg Med Chem Lett, 1995)

How the values were obtained:
HCT-116 [1] = assay: Potency relative to paclitaxel in a tubulin polymerization assay in HCT116 cell line; assay type: functional, Homo sapiens
HCT-116 [2] = assay: In vitro cytotoxicity was determined by inhibition against HCT116 cell line proliferation after 72 hours of incubation; assay type: cell-based; settings: Homo sapiens, HCT-116, 72 h
M109 [3] = assay: In vivo cytotoxicity of intraperitoneally administered compound was determined against ip implanted murine M-109 lung carcinoma; NA means not active; assay type: organism-based; settings: mouse
HCT-116 [4] = assay: cells; settings: Homo sapiens
M109 [5] = assay: In vivo cytotoxicity of intraperitoneally administered compound at dose 4 mg/kg/inj was determined against ip implanted murine M-109 lung carcinoma; assay type: organism-based; design: route intraperitoneal; settings: mouse
M109 [6] = assay: In vivo cytotoxicity of intraperitoneally administered compound at dose 6 mg/kg/inj was determined against ip implanted murine M-109 lung carcinoma; assay type: organism-based; design: route intraperitoneal; settings: mouse
M109 [7] = assay: In vivo cytotoxicity of intraperitoneally administered compound at dose 1 mg/kg/injection was determined against ip implanted murine M-109 lung carcinoma; assay type: organism-based; design: route intraperitoneal; settings: mouse

Structure (SMILES)	Tubulin polymerization ratio (HCT-116 [1])	IC50 (HCT-116 [2]) [nM]	T/C (M109 [3])	IC50 (HCT-116 [4]) [nM]	T/C (M109 [5]) [%]	T/C (M109 [6]) [mg kg-1 injection-1]	T/C (M109 [7]) [mg kg-1 injection-1]
CC(=O)O[C@H]1C(=O)[C@@]2(C)C([C@H](OC(=O)c3ccccc3)[C@]3(O)C[C@H](OC(=O)[C@H](O)C(C=C(C)C)NC(=O)OC(C)(C)C)C(C)=C1C3(C)C)[C@]1(OC(=O)C3CC3)CO[C@@H]1C[C@@H]2O (stereo not given in full)	0.36	7.7	Not Active	2.85			
CCCCC(=O)O[C@@]12CO[C@@H]1C[C@H](O)[C@@]1(C)C(=O)[C@H](OC(C)=O)C3=C(C)[C@@H](OC(=O)[C@H](O)C(NC(=O)c4ccccc4)c4ccccc4)C[C@@](O)([C@@H](OC(=O)c4ccccc4)C12)C3(C)C (stereo not given in full)	1.04	2		0.5			
CC(=O)O[C@H]1C(=O)[C@@]2(C)C([C@H](OC(=O)c3ccccc3)[C@]3(O)C[C@H](OC(=O)[C@H](O)C(NC(=O)c4ccccc4)c4ccccc4)C(C)=C1C3(C)C)[C@]1(OC(=O)N3CC3)CO[C@@H]1C[C@@H]2O (stereo not given in full)		15.6		6.5			
CC(=O)O[C@H]1C(=O)[C@@]2(C)C([C@H](OC(=O)c3ccccc3)[C@]3(O)C[C@H](OC(=O)[C@H](O)C(NC(=O)c4ccccc4)c4ccccc4)C(C)=C1C3(C)C)[C@]1(OC(=O)C3CCC3)CO[C@@H]1C[C@@H]2O (stereo not given in full)	0.44	1.5	Not Active	0.38			
CC(=O)O[C@H]1C(=O)[C@@]2(C)C([C@H](OC(=O)c3ccccc3)[C@]3(O)C[C@H](OC(=O)[C@H](O)C(NC(=O)c4ccccc4)c4ccccc4)C(C)=C1C3(C)C)[C@]1(OC(=O)C3CCCC3)CO[C@@H]1C[C@@H]2O (stereo not given in full)	1.54	2		0.5			
CC(=O)O[C@H]1C(=O)[C@@]2(C)C([C@H](OC(=O)c3ccccc3)[C@]3(O)C[C@H](OC(=O)[C@H](O)C(NC(=O)c4ccccc4)c4ccccc4)C(C)=C1C3(C)C)[C@]1(O)CO[C@@H]1C[C@@H]2O (stereo not given in full)	200	> 1000		> 200			
CC(=O)O[C@H]1C(=O)[C@@]2(C)C([C@H](OC(=O)c3ccccc3)[C@]3(O)C[C@H](OC(=O)[C@H](O)C(NC(=O)c4ccccc4)c4ccccc4)C(C)=C1C3(C)C)[C@]1(OC(=O)n3ccnc3)CO[C@@H]1C[C@@H]2O (stereo not given in full)	263	803		251			
CC(=O)O[C@H]1C(=O)[C@@]2(C)C([C@H](OC(=O)c3ccccc3)[C@]3(O)C[C@H](OC(=O)[C@H](O)C(NC(=O)c4ccccc4)c4ccccc4)C(C)=C1C3(C)C)[C@]1(OC(=O)NC3CCC3)CO[C@@H]1C[C@@H]2O (stereo not given in full)	0.76	9.2		2.3			
CC(=O)O[C@H]1C(=O)[C@@]2(C)C([C@H](OC(=O)c3ccccc3)[C@]3(O)C[C@H](OC(=O)[C@H](O)C(NC(=O)OC(C)(C)C)c4ccco4)C(C)=C1C3(C)C)[C@]1(OC(=O)C3CCC3)CO[C@@H]1C[C@@H]2O (stereo not given in full)	0.48	1.9	Not Active	0.48			
CCC(=O)O[C@@]12CO[C@@H]1C[C@H](O)[C@@]1(C)C(=O)[C@H](OC(C)=O)C3=C(C)[C@@H](OC(=O)[C@H](O)C(NC(=O)c4ccccc4)c4ccccc4)C[C@@](O)([C@@H](OC(=O)c4ccccc4)C12)C3(C)C (stereo not given in full)	1.5	2		0.5			
COC(=O)O[C@@]12CO[C@@H]1C[C@H](O)[C@@]1(C)C(=O)[C@H](OC(C)=O)C3=C(C)[C@@H](OC(=O)[C@H](O)C(NC(=O)c4ccccc4)c4ccco4)C[C@@](O)([C@@H](OC(=O)c4ccccc4)C12)C3(C)C (stereo not given in full)	0.33	2.3	Not Active	0.57			
CC(=O)O[C@H]1C(=O)[C@@]2(C)C([C@H](OC(=O)c3ccccc3)[C@]3(O)C[C@H](OC(=O)[C@H](O)C(NC(=O)c4ccccc4)c4ccccc4)C(C)=C1C3(C)C)[C@]1(OC(=O)c3ccc(F)cc3)CO[C@@H]1C[C@@H]2O (stereo not given in full)	61	790		198			
C=CC(=O)O[C@@]12CO[C@@H]1C[C@H](O)[C@@]1(C)C(=O)[C@H](OC(C)=O)C3=C(C)[C@@H](OC(=O)[C@H](O)C(NC(=O)c4ccccc4)c4ccccc4)C[C@@](O)([C@@H](OC(=O)c4ccccc4)C12)C3(C)C (stereo not given in full)	0.42	6		1.5			
CC(=O)O[C@H]1C(=O)[C@@]2(C)C([C@H](OC(=O)c3ccccc3)[C@]3(O)C[C@H](OC(=O)[C@H](O)C(NC(=O)c4ccccc4)c4ccccc4)C(C)=C1C3(C)C)[C@]1(OC(=O)CF)CO[C@@H]1C[C@@H]2O (stereo not given in full)	1.2	7		1.75			
CC(=O)O[C@H]1C(=O)[C@@]2(C)C([C@H](OC(=O)c3ccccc3)[C@]3(O)C[C@H](OC(=O)[C@H](O)C(NC(=O)OC(C)(C)C)c4ccco4)C(C)=C1C3(C)C)[C@]1(OC(=O)C3CC3)CO[C@@H]1C[C@@H]2O (stereo not given in full)	0.33	1.3		0.33	100		
CCCOC(=O)O[C@@]12CO[C@@H]1C[C@H](O)[C@@]1(C)C(=O)[C@H](OC(C)=O)C3=C(C)[C@@H](OC(=O)[C@H](O)C(NC(=O)c4ccccc4)c4ccccc4)C[C@@](O)([C@@H](OC(=O)c4ccccc4)C12)C3(C)C (stereo not given in full)	0.76	2.6		0.67			
C/C=C/C(=O)O[C@@]12CO[C@@H]1C[C@H](O)[C@@]1(C)C(=O)[C@H](OC(C)=O)C3=C(C)[C@@H](OC(=O)[C@H](O)C(NC(=O)c4ccccc4)c4ccccc4)C[C@@](O)([C@@H](OC(=O)c4ccccc4)C12)C3(C)C (stereo not given in full)	0.7	2.3		0.58			
CCOC(=O)O[C@@]12CO[C@@H]1C[C@H](O)[C@@]1(C)C(=O)[C@H](OC(C)=O)C3=C(C)[C@@H](OC(=O)[C@H](O)C(NC(=O)c4ccccc4)c4ccco4)C[C@@](O)([C@@H](OC(=O)c4ccccc4)C12)C3(C)C (stereo not given in full)	0.4	1.5	Not Active	0.43			
CCOC(=O)O[C@@]12CO[C@@H]1C[C@H](O)[C@@]1(C)C(=O)[C@H](OC(C)=O)C3=C(C)[C@@H](OC(=O)[C@H](O)C(NC(=O)c4ccccc4)c4ccccc4)C[C@@](O)([C@@H](OC(=O)c4ccccc4)C12)C3(C)C (stereo not given in full)	0.64	1		0.25		142	
CCCC(=O)O[C@@]12CO[C@@H]1C[C@H](O)[C@@]1(C)C(=O)[C@H](OC(C)=O)C3=C(C)[C@@H](OC(=O)[C@H](O)C(NC(=O)OC(C)(C)C)c4ccco4)C[C@@](O)([C@@H](OC(=O)c4ccccc4)C12)C3(C)C (stereo not given in full)	0.5	2.8		0.7			96
CCOC(=O)O[C@@]12CO[C@@H]1C[C@H](O)[C@@]1(C)C(=O)[C@H](OC(C)=O)C3=C(C)[C@@H](OC(=O)[C@H](O)C(NC(=O)OC(C)(C)C)c4ccco4)C[C@@](O)([C@@H](OC(=O)c4ccccc4)C12)C3(C)C (stereo not given in full)	0.3	2.95		0.59	144		
CCCCCC(=O)O[C@@]12CO[C@@H]1C[C@H](O)[C@@]1(C)C(=O)[C@H](OC(C)=O)C3=C(C)[C@@H](OC(=O)[C@H](O)C(NC(=O)c4ccccc4)c4ccccc4)C[C@@](O)([C@@H](OC(=O)c4ccccc4)C12)C3(C)C (stereo not given in full)	3.4	6		1.5			
CCCOC(=O)O[C@@]12CO[C@@H]1C[C@H](O)[C@@]1(C)C(=O)[C@H](OC(C)=O)C3=C(C)[C@@H](OC(=O)[C@H](O)C(NC(=O)OC(C)(C)C)c4ccco4)C[C@@](O)([C@@H](OC(=O)c4ccccc4)C12)C3(C)C (stereo not given in full)	0.71	3	Not Active	0.6			
CC(=O)O[C@H]1C(=O)[C@@]2(C)C([C@H](OC(=O)c3ccccc3)[C@]3(O)C[C@H](OC(=O)[C@H](O)C(C=C(C)C)NC(=O)c4ccccc4)C(C)=C1C3(C)C)[C@]1(OC(=O)C3CC3)CO[C@@H]1C[C@@H]2O (stereo not given in full)	0.36	1.7	Not Active	0.61			
CC(=O)O[C@H]1C(=O)[C@@]2(C)C([C@H](OC(=O)c3ccccc3)[C@]3(O)C[C@H](OC(=O)[C@H](O)C(NC(=O)c4ccccc4)c4ccccc4)C(C)=C1C3(C)C)[C@]1(OC(=O)C3CC3)CO[C@@H]1C[C@@H]2O (stereo not given in full)	0.24	1		0.25		188	
CC(=O)O[C@H]1C(=O)[C@@]2(C)C([C@H](OC(=O)c3ccccc3)[C@]3(O)C[C@H](OC(=O)[C@H](O)C(NC(=O)c4ccccc4)c4ccccc4)C(C)=C1C3(C)C)[C@]1(OC(=O)C(C)C)CO[C@@H]1C[C@@H]2O (stereo not given in full)	0.46	5		1.25			
CC(=O)O[C@H]1C(=O)[C@@]2(C)C([C@H](OC(=O)c3ccccc3)[C@]3(O)C[C@H](OC(=O)[C@H](O)C(NC(=O)c4ccccc4)c4ccccc4)C(C)=C1C3(C)C)[C@]1(OC(=O)C(Cl)(Cl)Cl)CO[C@@H]1C[C@@H]2O (stereo not given in full)	0.68	4		1.1			
CC(=O)O[C@H]1C(=O)[C@@]2(C)C([C@H](OC(=O)c3ccccc3)[C@]3(O)C[C@H](OC(=O)[C@H](O)C(NC(=O)c4ccccc4)c4ccccc4)C(C)=C1C3(C)C)[C@]1(OC(=O)c3ccccc3)CO[C@@H]1C[C@@H]2O (stereo not given in full)	>60	410		103			
